Reference: patent publication US6676932B2, “Ultraviolet absorbent, photostabilizer, ultraviolet ray-absorbing composition, photostabilized composition and external preparation for skin” (Shiseido Co., Ltd., priority 2001, dated 2004)

Legend:
Assay type in all cases: physicochemical
[1] = Dye stabilization effect under daylight exposure (Test Examples 6-91); design: key to Δ E: color difference ΔE in Lab vs. color before daylight exposure; key to Appearance (visual determination): ◯: no change; Δ: almost no change; x: change; settings: photostabilizer 0.05 wt %, daylight exposure (80 MJ)
Method: For observation of the change of the appearance of each test sample (determination based on visual observation) and the measurement of color difference (ΔE) before and after daylight exposure (80 MJ), the test sample was prepared.
(§1) With a spectrophotometer, the color was measured on the Lab coordinate system, to calculate the color difference on the basis of the color before daylight exposure. More specifically, the color difference (ΔE) was calculated on the basis of the measured values (L1, a1, b1) before daylight exposure.

[2] = Stabilization effect on perfume under daylight exposure (Test Examples 92 to 181); design: key: ◯: no change; Δ: almost no change; x: change; settings: daylight exposure (80 MJ)
Method: Each test sample was prepared for observation of the change of the odor of the test sample (determined by perfume coordinator) before and after daylight exposure (80 MJ).

[3] = Drug stabilization effect under daylight exposure (Test Examples 182 to 211); design: key to Appearance (visual determination): ◯: no change; Δ: almost no change; x: change; settings: photostabilizer 0.05 wt %, daylight exposure (80 MJ); for Remaining ratio (%): liquid chromatography
Method: (§2) For observation of the change of the appearance of each test sample (determination based on visual observation) and the measurement of the remaining ratio by liquid chromatography before and after daylight exposure (80 MJ), the test sample was prepared.

[4] = Dye stabilization effect in blend with sequestering agents (Test Examples 212 to 275); settings: daylight exposure (80 MJ)
Method: Each test sample was prepared for observation of the change of the appearance of each test sample (determined visually) and measurement of the color difference (ΔE) before and after daylight exposure (80 MJ).
as §1

[5] = Drug stabilization effect blended with sequestering agent (Test Examples 372 to 391); design: key to Appearance (visual determination): ◯: no change; Δ: almost no change; x: change; settings: photostabilizer blend amount 0.03, daylight exposure (80 MJ)
Method: Then, the photostabilization effect of the pyridazine derivative in combination with sequestering agents on each drug and the change of the appearance of each composition were examined, by using the following formulation for assessment.
as §2

[6] = dye Blue 1 (Brilliant Blue FCF) 0.0001 wt %
[7] = dye Green 3 (Fast Green FCF) 0.001 wt %
[8] = dye Red 227 (Acid Fuchsine D) 0.0001 wt %
[9] = dye Yellow 5 (Sunset Yellow FCF) 0.001 wt %
[10] = dyes Red 213 (Rhodamine B) 0.00001 + Blue 1 (Brilliant Blue FCF) 0.00001 wt %
[11] = dyes Red 227 (Acid Fuchsine D) 0.0001 + Yellow 5 (Sunset Yellow FCF) 0.0001 wt %
[12] = drug dl-α-tocopherol 2-L-ascorbic acid phosphate diester potassium salt 0.01 wt %
[13] = dyes Red 401 (Violanin R) 0.0001 + Blue 1 (Brilliant Blue FCF) 0.00001 wt %
[14] = dyes Yellow 203 (Quinoline Yellow WS) 0.0001 + Yellow 5 (Sunset Yellow FCF) 0.0001 wt %
[15] = drug dibutylhydroxytoluene 0.01 wt %

**Q.** Which results are given for `Oc1cc(N2CCCCC2)cnn1` [3-Hydroxy-5-piperidinopyridazine, 3-hydroxy-5-piperidinopyridazine]?
**A.** Appearance (visual determination) [1, 6]: ◯; Δ E [1, 6]: 1.28; Appearance (visual determination) [1, 7]: ◯; Δ E [1, 7]: 0.45; Appearance (visual determination) [1, 8]: ◯; Δ E [1, 8]: 0.52; Appearance (visual determination) [1, 9]: ◯; Δ E [1, 9]: 0.53; Appearance (visual determination) [1, 10]: ◯; Δ E [1, 10]: 1.01; Appearance (visual determination) [1, 11]: ◯; Δ E [1, 11]: 0.68; odor determination ([2]; base perfume Rose, photostabilizer 0.05 wt %): ◯; odor determination ([2]; base perfume Woody, photostabilizer 0.1 wt %): ◯; odor determination ([2]; natural perfume Lavender oil, photostabilizer 0.1 wt %): ◯; odor determination ([2]; natural perfume Rose oil, photostabilizer 0.05 wt %): ◯; odor determination ([2]; synthetic perfume Citral, photostabilizer 0.1 wt %): ◯; odor determination ([2]; synthetic perfume Linalyl acetate, photostabilizer 0.1 wt %): ◯; Appearance (visual determination) [3, 12]: ◯; Remaining ratio (%) [3, 12]: 98.7%; Appearance (visual determination) ([3]; drug salicylic acid 0.1 wt %): ◯; Remaining ratio (%) ([3]; drug salicylic acid 0.1 wt %): 98.5%; Δ E ([4]; dye Blue 1 (Brilliant Blue FCF) 0.001, photostabilizer 0.02, no sequestering agent): 1.74; Δ E ([4]; dye Blue 1 (Brilliant Blue FCF) 0.001, photostabilizer 0.02, with ethylenediaminehydroxyethyl trisodium triacetate 0.05): 0.54; Δ E ([4]; dye Blue 1 (Brilliant Blue FCF) 0.001, photostabilizer 0.02, with ethylenediaminetetraacetate trisodium 0.05): 0.78; Δ E ([4]; dye Blue 1 (Brilliant Blue FCF) 0.001, photostabilizer 0.02, with sodium metaphosphate 0.05): 0.88; Δ E ([4]; dyes Red 106 (Acid Red) 0.00001 + Yellow 203 (Quinoline Yellow WS) 0.0001, no sequestering agent, photostabilizer blend amount 0.01): 1.08; Δ E ([4]; dyes Red 106 (Acid Red) 0.00001 + Yellow 203 (Quinoline Yellow WS) 0.0001, with ethylenediaminehydroxyethyl trisodium triacetate 0.02, photostabilizer blend amount 0.01): 0.72; Appearance (visual determination) ([5]; drug dl-α-tocopherol 2-L-ascorbic acid phosphate diester potassium salt 0.01, no sequestering agent): Δ; Appearance (visual determination) ([5]; drug dl-α-tocopherol 2-L-ascorbic acid phosphate diester potassium salt 0.01, with ethylenediaminehydroxyethyl Triacetate trisodium 0.03): ◯

**Q.** For `Oc1ccc(N2CCOCC2)nn1` [3-Hydroxy-6-morpholinopyridazine, 6-Morpholino-3-hydroxypyridazine], which “Appearance (visual determination)” value [1, 6] is on record?
**A.** ◯

**Q.** And the “Δ E” value [1, 6]?
**A.** 1.32

**Q.** What about the “Appearance (visual determination)” value [1, 7] of the same compound?
**A.** ◯

**Q.** And the “Δ E” value [1, 7]?
**A.** 0.43

**Q.** And the “Appearance (visual determination)” value [1, 8]?
**A.** ◯

**Q.** What about the “Δ E” value [1, 8] of the same compound?
**A.** 0.54

**Q.** And the “Appearance (visual determination)” value [1, 9]?
**A.** ◯

**Q.** What about the “Δ E” value [1, 9] of the same compound?
**A.** 0.53

**Q.** And the “Appearance (visual determination)” value [1, 13]?
**A.** ◯

**Q.** What about the “Δ E” value [1, 13] of the same compound?
**A.** 0.52

**Q.** And the “Appearance (visual determination)” value [1, 14]?
**A.** ◯

**Q.** What about the “Δ E” value [1, 14] of the same compound?
**A.** 0.44

**Q.** And the odor determination ([2]; natural perfume Nelori oil, photostabilizer 0.1 wt %)?
**A.** ◯

**Q.** What about the odor determination ([2]; natural perfume Ylang ylang oil, photostabilizer 0.2 wt %) of the same compound?
**A.** ◯

**Q.** What about the odor determination ([2]; synthetic perfume Limonene oil, photostabilizer 0.05 wt %) of the same compound?
**A.** ◯

**Q.** And the odor determination ([2]; synthetic perfume Linalool, photostabilizer 0.05 wt %)?
**A.** ◯

**Q.** And the “Appearance (visual determination)” value [3, 15]?
**A.** ◯

**Q.** What about the “Remaining ratio (%)” value [3, 15] of the same compound?
**A.** 98.0%

**Q.** And the “Δ E” value ([4]; dye Green 3 (Fast Green FCF) 0.001, photostabilizer 0.02, no sequestering agent)?
**A.** 0.75

**Q.** What about the “Δ E” value ([4]; dye Green 3 (Fast Green FCF) 0.001, photostabilizer 0.02, with ethylenediaminetetraacetate trisodium 0.1) of the same compound?
**A.** 0.32

**Q.** And the “Δ E” value ([4]; dye Green 3 (Fast Green FCF) 0.001, photostabilizer 0.02, with sodium metaphosphate 0.1)?
**A.** 0.36

**Q.** What about the “Δ E” value ([4]; dye Green 3 (Fast Green FCF) 0.001, photostabilizer 0.02, with sodium polyphosphate 0.1) of the same compound?
**A.** 0.52

**Q.** What about the “Δ E” value ([4]; dyes Red 106 (Acid Red) 0.00001 + Yellow 5 (Sunset Yellow FCF) 0.0001, no sequestering agent, photostabilizer blend amount 0.01) of the same compound?
**A.** 1.38

**Q.** And the “Δ E” value ([4]; dyes Red 106 (Acid Red) 0.00001 + Yellow 5 (Sunset Yellow FCF) 0.0001, with ethylenediaminetetraacetate trisodium 0.02, photostabilizer blend amount 0.01)?
**A.** 0.92

**Q.** What about the “Appearance (visual determination)” value ([5]; drug L-ascorbic acid 2-glucoside 2.0, no sequestering agent) of the same compound?
**A.** ◯

**Q.** And the “Appearance (visual determination)” value ([5]; drug L-ascorbic acid 2-glucoside 2.0, with sodium metaphosphate 0.03)?
**A.** ◯
